Measured values published in patent US20150126516A1, “PIPERIDINE COMPOUND AND ITS USE IN PEST CONTROL” (Sumitomo Chemical Company, Limited, priority 2012, published 2015).
Where two headings read alike, the source gives them in different places.

Legend:
cotton aphids = assay: Controlling effect on cotton aphid, spray on inoculated cucumber seedlings; assay type: in vivo, Aphis gossypii; settings: 144 h; 500 ppm active ingredient, 20 ml sprayed on cucumber seedlings with about 30 cotton aphids, 6 days after spraying
[1] = test system: summer fruit tortrix moths (Adoxophyes orana); assay: Controlling effect on summer fruit tortrix moth, treated artificial feed; assay type: in vivo; settings: 168 h
Description: Liquid medicines for a test were prepared by diluting each formulation of the compounds 1, 3, 6, 10, 12, 16, 17, 20, 21, 23, 26 to 29, 33, 38, and 42 of the present invention, which were obtained from Formulation Example 5, with water so that the concentration of the active ingredients becomes 500 ppm.
Silk Mates 2S (artificial feed: Nosan Corporation), which were sliced in a thickness of 2 mm, were placed on the bottom of polyethylene cups and 1 mL of each of the above-described liquid medicines for a test was irrigated thereto.
After air-drying, 30 first-instar larvae of summer fruit tortrix moths (Adoxophyes orana) were released in each cup, which was then covered with a lid. The cups were stored at 25° C., the number of surviving insects was counted after 7 days, and the mortality rate was obtained using the following formula.
(§1) Mortality(%)=(the number of dead insects/the number of insects provided for a test)×100

diamondback moths = assay: Controlling effect on diamondback moth, spray on cabbages; assay type: in vivo; settings: Plutella xylostella, 120 h, read-out: Mortality rate
Description: Spray solutions for a test were prepared by diluting each formulation of the compounds 1, 11 to 14, 16, 17, 36, and 38 of the present invention, which were obtained from Formulation Example 5, with water so that the concentration of the active ingredients becomes 500 ppm.
Meanwhile, each of the above-described liquid solutions for the test was sprayed on cabbages in a third-leaf stage which were planted in polyethylene cups at a ratio of 20 mL/cup. After the liquid solutions were dried, the stems and leaves were cut and accommodated in each 50 mL cup. 5 second-instar larvae of diamondback moths were released in each cup, which was then covered with a lid. The cups were stored at 25° C., the number of surviving insects was counted after 5 days, and the mortality rate was obtained using the following formula.
as §1

common houseflies = assay: Controlling effect on common housefly, treated filter paper with sucrose bait; assay type: in vivo; settings: Musca domestica, 24 h, read-out: Mortality rate
Description: Liquid medicines for a test were prepared by diluting a formulation of the compound 28 of the present invention, which was obtained from Formulation Example 5, with water so that the concentration of the active ingredients becomes 500 ppm.
A filter paper having a diameter of 5.5 cm was spread on the bottom of a polyethylene cup having the same size as that of the filter paper, 0.7 ml ml of any one of the above-described liquid medicines for a test was added dropwise onto the filter paper, and 30 mg of sucrose was uniformly put therein as bait. 10 female imagoes of common houseflies were released in the polyethylene cup, which was then covered with a lid. The number of live and dead common houseflies were checked after 24 hours and the mortality rate was obtained using the following formula.
Mortality(%)=(the number of dead insectse/the number of insects provided for a test)×100

[2] = 500 ppm, 1 mL on artificial feed, 30 first-instar larvae, 25° C., after 7 days, read-out: Mortality
[3] = 500 ppm, 20 mL/cup sprayed on cabbages, 5 second-instar larvae, 25° C., after 5 days

For `O=C(NCC1(c2cccnc2)CCN(CCc2ccccc2C(F)(F)F)CC1)c1cc(Cl)nc(Cl)c1` [compound 39, 2,6-dichloro-N-((4-(pyridin-3-yl)-1-(2-(trifluoromethyl)phenethyl)piperidin-4-yl)methyl)isonicotinamide], the pest or weed control at 500 ppm (cotton aphids) was ≥ 90%.
`O=C(NCC1(c2ccccc2)CCN(CCc2cccc(Cl)c2Cl)CC1)c1cc(Cl)nc(Cl)c1` [compound 33, 2,6-dichloro-N-((1-(2,3-dichlorophenethyl)-4-phenylpiperidin-4-yl)methyl)isonicotinamide] was tested, and the mortality at 500 ppm [1, 2] was ≥ 90%.
For `O=C(NCC1(c2ccccc2)CCN(CCc2ccccc2Cl)CC1)c1cc(Cl)nc(Cl)c1` [compound 29, 2,6-dichloro-N-((1-(2-chlorophenethyl)-4-phenylpiperidin-4-yl)methyl)isonicotinamide], the pest or weed control at 500 ppm (cotton aphids) was ≥ 90% and the mortality at 500 ppm [1] was ≥ 90%.
For `O=C(NCC1(c2ccccc2)CCN(CCc2ccccc2C(F)(F)F)CC1)c1ccccn1` [compound 16, N-((4-phenyl-1-(2-(trifluoromethyl)phenethyl)piperidin-4-yl)methyl)picolinamide], the pest or weed control at 500 ppm (cotton aphids) was ≥ 90%, the mortality at 500 ppm (diamondback moths) was ≥ 80% and the mortality at 500 ppm [1] was ≥ 90%.
For `O=C(NCC1(c2ccccc2)CCN(CCc2ccccc2C(F)(F)F)CC1)c1ccccc1Cl` [compound 12, 2-chloro-N-((4-phenyl-1-(2-(trifluoromethyl)phenethyl)piperidin-4-yl)methyl)benzamide], the pest or weed control at 500 ppm (cotton aphids) was ≥ 90%, the mortality at 500 ppm (diamondback moths) was ≥ 80% and the mortality at 500 ppm [1] was ≥ 90%.
With `O=C(NCC1(c2ccccc2)CCN(CCc2ccccc2C(F)(F)F)CC1)c1ccccc1` [compound 11, N-((4-phenyl-1-(2-(trifluoromethyl)phenethyl)piperidin-4-yl)methyl)benzamide] the pest or weed control at 500 ppm (cotton aphids) was ≥ 90% and the mortality at 500 ppm (diamondback moths) was ≥ 80%.
`O=C(NCC1(c2ccccn2)CCN(CCc2ccccc2C(F)(F)F)CC1)c1ccccc1Cl` [compound 41, 2-chloro-N-((4-(pyridin-2-yl)-1-(2-(trifluoromethyl)phenethyl)piperidin-4-yl)methyl)benzamide] was tested, and the pest or weed control at 500 ppm (cotton aphids) was ≥ 90%.
`O=C(NCC1(c2ccccc2)CCN(CCc2ccccc2C(F)(F)F)CC1)c1ncccc1Cl` [compound 21, 3-chloro-N-((4-phenyl-1-(2-(trifluoromethyl)phenethyl)piperidin-4-yl)methyl)picolinamide] was tested, and the pest or weed control at 500 ppm (cotton aphids) was ≥ 90% and the mortality at 500 ppm [1] was ≥ 90%.
For `O=C(NCC1(c2ccccc2)CCN(CCc2ccc(C(F)(F)F)cc2)CC1)c1ccnc(Cl)c1` [compound 10, 2-chloro-N-((4-phenyl-1-(4-(trifluoromethyl)phenethyl)piperidin-4-yl)methyl)isonicotinamide], the mortality at 500 ppm [1, 2] was ≥ 90%.
With `O=C(NCC1(c2ccccc2)CCN(CCc2ccccc2)CC1)c1ccc(Cl)cc1` [compound 6, 4-chloro-N-((1-phenethyl-4-phenylpiperidin-4-yl)methyl)benzamide] the mortality at 500 ppm [1, 2] was ≥ 90%.
`O=C(NCC1(c2ccccc2)CCN(CCc2ccccc2C(F)(F)F)CC1)c1c(F)cc(F)cc1F` [compound 36, 2,4,6-trifluoro-N-((4-phenyl-1-(2-(trifluoromethyl)phenethyl)piperidin-4-yl)methyl)benzamide] was tested, and the pest or weed control at 500 ppm (cotton aphids) was ≥ 90% and the mortality at 500 ppm (diamondback moths) was ≥ 80%.
In the case of `O=C(NCC1(c2ccccc2)CCN(CCc2ccccc2C(F)(F)F)CC1)c1cc(Cl)cc(Cl)c1` [compound 17, 3,5-dichloro-N-((4-phenyl-1-(2-(trifluoromethyl)phenethyl)piperidin-4-yl)methyl)benzamide], the mortality at 500 ppm (diamondback moths; [3]) is reported as ≥ 80% and the mortality at 500 ppm [1, 2] is reported as ≥ 90%.
For `COc1ccccc1C(=O)NCC1(c2ccccc2)CCN(CCc2ccccc2C(F)(F)F)CC1` [compound 28, 2-methoxy-N-((4-phenyl-1-(2-(trifluoromethyl)phenethyl)piperidin-4-yl)methyl)benzamide], the pest or weed control at 500 ppm (cotton aphids) was ≥ 90%, the mortality at 500 ppm [1] was ≥ 90% and the mortality at 500 ppm (common houseflies) was ≥ 70%.
In the case of `O=C(NCC1(c2ccccc2)CCN(CCc2ccccc2C(F)(F)F)CC1)c1ccnc(Cl)c1` [compound 3, 2-chloro-N-((4-phenyl-1-(2-(trifluoromethyl)phenethyl)piperidin-4-yl)methyl)isonicotinamide], the pest or weed control at 500 ppm (cotton aphids) is reported as ≥ 90% and the mortality at 500 ppm [1] is reported as ≥ 90%.
In the case of `O=C(NCC1(c2ccccn2)CCN(CCc2ccccc2C(F)(F)F)CC1)c1cc(Cl)nc(Cl)c1` [compound 38, 2,6-dichloro-N-((4-(pyridin-2-yl)-1-(2-(trifluoromethyl)phenethyl)piperidin-4-yl)methyl)isonicotinamide], the pest or weed control at 500 ppm (cotton aphids) is reported as ≥ 90%, the mortality at 500 ppm (diamondback moths) is reported as ≥ 80% and the mortality at 500 ppm [1] is reported as ≥ 90%.
With `O=C(NCC1(c2ccccc2)CCN(CCc2ccccc2C(F)(F)F)CC1)c1cccc(Cl)c1` [compound 13, 3-chloro-N-((4-phenyl-1-(2-(trifluoromethyl)phenethyl)piperidin-4-yl)methyl)benzamide] the mortality at 500 ppm (diamondback moths; [3]) was ≥ 80%.
In the case of `O=C(NCC1(c2ccccc2)CCN(CCc2ccccc2C(F)(F)F)CC1)c1cc(Cl)nc(Cl)c1` [compound 1, 2,6-dichloro-N-((4-phenyl-1-(2-(trifluoromethyl)phenethyl)piperidin-4-yl)methyl)isonicotinamide], the mortality at 500 ppm (diamondback moths) is reported as ≥ 80% and the mortality at 500 ppm [1] is reported as ≥ 90%.
For `COc1ccccc1CCN1CCC(CNC(=O)c2cc(Cl)nc(Cl)c2)(c2ccccc2)CC1` [compound 26, 2,6-dichloro-N-((1-(2-methoxyphenethyl)-4-phenylpiperidin-4-yl)methyl)isonicotinamide], the pest or weed control at 500 ppm (cotton aphids) was ≥ 90% and the mortality at 500 ppm [1] was ≥ 90%.
`O=C(NCC1(c2ncccc2F)CCN(CCc2ccccc2C(F)(F)F)CC1)c1ccnc(Cl)c1` [compound 40, 2-chloro-N-((4-(3-fluoropyridin-2-yl)-1-(2-(trifluoromethyl)phenethyl)piperidin-4-yl)methyl)isonicotinamide] was tested, and the pest or weed control at 500 ppm (cotton aphids) was ≥ 90%.
`O=C(NCC1(c2ccccc2Cl)CCN(CCc2ccccc2C(F)(F)F)CC1)c1ccccc1Cl` [compound 25, 2-chloro-N-((4-(2-chlorophenyl)-1-(2-(trifluoromethyl)phenethyl)piperidin-4-yl)methyl)benzamide] was tested, and the pest or weed control at 500 ppm (cotton aphids) was ≥ 90%.
In the case of `O=C(NCC1(c2ccccc2)CCN(CCc2ccccc2C(F)(F)F)CC1)c1ccc(Cl)cc1` [compound 14, 4-chloro-N-((4-phenyl-1-(2-(trifluoromethyl)phenethyl)piperidin-4-yl)methyl)benzamide], the mortality at 500 ppm (diamondback moths; [3]) is reported as ≥ 80%.
For `COc1ccccc1C(=O)NCC1(c2ccccn2)CCN(CCc2ccccc2C(F)(F)F)CC1` [compound 42, 2-methoxy-N-((4-(pyridin-2-yl)-1-(2-(trifluoromethyl)phenethyl)piperidin-4-yl)methyl)benzamide], the pest or weed control at 500 ppm (cotton aphids) was ≥ 90% and the mortality at 500 ppm [1] was ≥ 90%.
With `Cc1ccccc1CCN1CCC(CNC(=O)c2cc(Cl)nc(Cl)c2)(c2ccccc2)CC1` [compound 27, 2,6-dichloro-N-((1-(2-methylphenethyl)-4-phenylpiperidin-4-yl)methyl)isonicotinamide] the pest or weed control at 500 ppm (cotton aphids) was ≥ 90% and the mortality at 500 ppm [1] was ≥ 90%.
For `O=C(NCC1(c2ccccc2)CCN(CCc2ccccc2C(F)(F)F)CC1)c1cccnc1Cl` [compound 24, 2-chloro-N-((4-phenyl-1-(2-(trifluoromethyl)phenethyl)piperidin-4-yl)methyl)nicotinamide], the pest or weed control at 500 ppm (cotton aphids) was ≥ 90%.
With `O=C(NCC1(c2ccccc2)CCN(CCc2ccccc2)CC1)c1ccnc(Cl)c1` [compound 2, 2-chloro-N-((1-phenethyl-4-phenylpiperidin-4-yl)methyl)isonicotinamide] the pest or weed control at 500 ppm (cotton aphids) was ≥ 90%.
For `O=C(NCC1(c2ccccc2)CCN(CCc2ccccc2)CC1)c1cc(Cl)nc(Cl)c1` [compound 20, 2,6-dichloro-N-((1-phenethyl-4-phenylpiperidin-4-yl)methyl)isonicotinamide], the pest or weed control at 500 ppm (cotton aphids) was ≥ 90% and the mortality at 500 ppm [1] was ≥ 90%.
For `O=C(NCC1(c2cccc(Cl)c2)CCN(CCc2ccccc2C(F)(F)F)CC1)c1ccccc1Cl` [compound 23, 2-chloro-N-((4-(3-chlorophenyl)-1-(2-(trifluoromethyl)phenethyl)piperidin-4-yl)methyl)benzamide], the mortality at 500 ppm [1, 2] was ≥ 90%.
